In patent US20220324835A1 (Nurix Therapeutics, Inc., priority 2018, published 2022):

Assays:
Cbl-b [1] = molecular target: T1, Cbl-b (Homo sapiens, UniProt Q13191); assay: Cbl-b inhibition assay (Cbl-b activity assay, FRET, Biological Example 1; 100 mM NaCl, 60 nM Src kinase); assay type: biochemical; details: upper bound stated in text lists; read-out: IC50 values in the Cbl-b inhibition assay of Biological Example 1
Method in brief: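 N-terminally biotinylated Avi-tagged Cbl-b was mixed with Src kinase, UbcH5B covalently conjugated to Bodipy-fluorescein ubiquitin, and streptavidin-terbium. Src phosphorylation lets Cbl-b bind UbcH5B-Ub, giving terbium-fluorescein FRET; inhibition is read as loss of FRET signal.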

T-cell [2] = assay: IL-2 secretion from T-cells co-stimulated with anti-CD3 and anti-CD28 antibody (Biological Example 2); assay type: cell-based, human; details: Homo sapiens, T-cell, read-out: IL-2 secretion Anti-CD3/Anti-CD28 stimulation; for fold induction at 0.3 µM: 0.3 μM Cbl-b inhibitor; for fold induction at 1 µM: 1 μM Cbl-b inhibitor
Method in brief: (§1)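 No assay protocol given; T-cells stimulated with anti-CD3 alone or anti-CD3 plus anti-CD28, with or without Cbl-b inhibitor. Activation read as IL-2 secretion or CD25 surface staining, expressed as fold over baseline from uninhibited cells […].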

T-cell [3] = assay: IL-2 secretion from T-cells stimulated with anti-CD3 antibody alone (Biological Example 2); assay type: cell-based, human; details: T-cell, 1 μM Cbl-b inhibitor, read-out: IL-2 secretion Anti-CD3 stimulation
T-cell [4] = assay: CD25 cell surface staining on T-cells co-stimulated with anti-CD3 and anti-CD28 antibody (Biological Example 2); assay type: cell-based, human; details: Homo sapiens, T-cell, read-out: CD25 staining Anti-CD3/Anti-CD28 stimulation; for fold induction at 0.3 µM: 0.3 μM Cbl-b inhibitor; for fold induction at 1 µM: 1 μM Cbl-b inhibitor
Method in brief: as §1

T-cell [5] = assay: CD25 cell surface staining on T-cells stimulated with anti-CD3 antibody alone (Biological Example 2); assay type: cell-based, human; details: T-cell, 1 μM Cbl-b inhibitor, read-out: CD25 staining Anti-CD3 stimulation
Cbl-b [6] = molecular target: T1, Cbl-b; assay: Cbl-b activity assay (Cbl-b inhibition assay), TR-FRET of Cbl-b interaction with UbcH5B-Ub; assay type: biochemical; details: assay buffer with 100 mM NaCl, 60 nM Src kinase; read-out: Cbl-b activity IC50
Method in brief: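 TR-FRET readout of Cbl-b binding to Bodipy-fluorescein N-terminally labeled Ub conjugated to UbcH5B C85K, measured with compound present. After compound incubation, 60 nM Src kinase with 1 mM ATP and 5 mM MgCl2 (final) was added for 1.5 h, then a further 1 h incubation; asterisked values used 50 mM NaCl buffer and 30 nM Src.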

[7] = fold change over baseline (anti-CD3/anti-CD28 stimulated T-cells without inhibitor)
[8] = Homo sapiens, fold change over baseline (anti-CD3/anti-CD28 stimulated T-cells without inhibitor)
[9] = fold change over baseline, primary human total T-cells

T1 sequence (Q13191 36-427): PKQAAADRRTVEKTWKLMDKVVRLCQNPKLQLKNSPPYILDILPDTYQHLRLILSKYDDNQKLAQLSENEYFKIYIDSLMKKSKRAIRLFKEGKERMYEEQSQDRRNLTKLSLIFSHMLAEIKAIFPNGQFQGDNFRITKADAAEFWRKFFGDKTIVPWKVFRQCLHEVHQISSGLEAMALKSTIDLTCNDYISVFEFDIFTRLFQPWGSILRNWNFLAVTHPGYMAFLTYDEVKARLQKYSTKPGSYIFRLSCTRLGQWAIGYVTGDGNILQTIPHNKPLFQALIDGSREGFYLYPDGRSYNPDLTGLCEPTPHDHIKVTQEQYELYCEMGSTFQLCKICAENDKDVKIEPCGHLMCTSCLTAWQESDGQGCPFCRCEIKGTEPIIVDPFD

C[C@H](Cc1nncn1C)c1cc(N[C@@H]2CC[C@@H]2O)nc(N2Cc3c(cccc3C(F)(F)F)C2=O)c1 [Example 689a, 2-(6-(((1R,2S)-2-hydroxycyclobutyl)amino)-4-((R)-1-(4-methyl-4H-1,2,4-triazol-3-yl)propan-2-yl)pyridin-2-yl)-4-(trifluoromethyl)isoindolin-1-one]
IC50 (Cbl-b [1]): ≤ 1 µM
fold induction at 0.3 µM (T-cell [2]; [7]): 1.01 to 2.5
fold induction at 1 µM (T-cell [2]; [7]): 1.01 to 2.5
fold induction at 1 µM (T-cell [3]; [8]): < 0.05
fold induction at 0.3 µM (T-cell [4]; [7]): 1.01 to 1.3
fold induction at 1 µM (T-cell [4]; [7]): 1.01 to 1.3
fold induction at 1 µM (T-cell [5]; [8]): 0.601 to 0.8
IC50 (Cbl-b [6]): 0.301 to 1 µM

COc1cc(C(=O)Nc2cccc(C3(Cc4nncn4C)COC3)c2)nc(C2CC2)n1 [Compound 342, 2-cyclopropyl-6-methoxy-N-(3-(3-((4-methyl-4H-1,2,4-triazol-3-yl)methyl)oxetan-3-yl)phenyl)pyrimidine-4-carboxamide]
IC50 (Cbl-b [1]): ≤ 0.1 µM
fold induction at 0.3 µM (T-cell [2]; [9]): 5 to 7.5
fold induction at 1 µM (T-cell [2]; [9]): > 7.5
fold induction at 1 µM (T-cell [3]; [9]): 0.151 to 0.2
fold induction at 0.3 µM (T-cell [4]; [9]): 1.01 to 1.3
fold induction at 1 µM (T-cell [4]; [9]): 1.31 to 1.5
fold induction at 1 µM (T-cell [5]; [9]): > 1
IC50 (Cbl-b [6]): < 0.1 µM

CN1C[C@H]2C[C@@H]1CN2c1cc2c(c(C(F)(F)F)c1)CN(c1cccc([C@@](C)(F)C(F)(F)c3nncn3C)c1)C2=O [Example 562, 6-((1R,4R)-5-Methyl-2,5-diazabicyclo[2.2.1]heptan-2-yl)-2-(3-((R)-1,1,2-trifluoro-1-(4-methyl-4H-1,2,4-triazol-3-yl)propan-2-yl)phenyl)-4-(trifluoromethyl)-isoindolin-1-one]
IC50 (Cbl-b [1]): ≤ 0.1 µM
fold induction at 0.3 µM (T-cell [2]; [7]): 5 to 7.5
fold induction at 1 µM (T-cell [2]; [7]): > 7.5
fold induction at 1 µM (T-cell [3]; [8]): > 0.201
fold induction at 0.3 µM (T-cell [4]; [7]): 1.51 to 1.75
fold induction at 1 µM (T-cell [4]; [7]): 1.51 to 1.75
fold induction at 1 µM (T-cell [5]; [8]): > 1
IC50 (Cbl-b [6]): < 0.1 µM

Cn1cnnc1CC1(c2cccc(N3Cc4c(cc(CN5CCCCC(F)C5)cc4C(F)(F)F)C3=O)c2)COC1 (stereo not drawn) [Example 627, 6-((3-fluoroazepan-1-yl)methyl)-2-(3-(3-((4-methyl-4H-1,2,4-triazol-3-yl)methyl)oxetan-3-yl)phenyl)-4-(trifluoromethyl)isoindolin-1-one]
IC50 (Cbl-b [1]): ≤ 0.1 µM
fold induction at 0.3 µM (T-cell [2]; [7]): 5 to 7.5
fold induction at 1 µM (T-cell [2]; [7]): > 7.5
fold induction at 1 µM (T-cell [3]; [8]): > 0.201
fold induction at 0.3 µM (T-cell [4]; [7]): 1.31 to 1.5
fold induction at 1 µM (T-cell [4]; [7]): 1.31 to 1.5
fold induction at 1 µM (T-cell [5]; [8]): > 1
IC50 (Cbl-b [6]): < 0.1 µM

Cn1cnnc1CC1(c2cccc(N3Cc4c(cc(CN5CCC6(CC6)C5)cc4C(F)(F)F)C3=O)c2)CCC1 [Example 695, 6-((5-azaspiro[2.4]heptan-5-yl)methyl)-2-(3-(1-((4-methyl-4H-1,2,4-triazol-3-yl)methyl)cyclobutyl)phenyl)-4-(trifluoromethyl)isoindolin-1-one]
IC50 (Cbl-b [1]): ≤ 0.1 µM
fold induction at 0.3 µM (T-cell [2]; [7]): > 7.5
fold induction at 1 µM (T-cell [2]; [7]): > 7.5
fold induction at 1 µM (T-cell [3]; [8]): > 0.201
fold induction at 0.3 µM (T-cell [4]; [7]): 1.31 to 1.5
fold induction at 1 µM (T-cell [4]; [7]): 1.31 to 1.5
fold induction at 1 µM (T-cell [5]; [8]): > 1
IC50 (Cbl-b [6]): < 0.1 µM

Cn1cnnc1[C@@H](F)C1(c2cccc(N3Cc4c(cc(CN5C6CCCC5CC6)cc4C(F)(F)F)C3=O)c2)COC1 [Example 675a, 6-((8-azabicyclo[3.2.1]octan-8-yl)methyl)-2-(3-(3-((S)-fluoro(4-methyl-4H-1,2,4-triazol-3-yl)methyl)oxetan-3-yl)phenyl)-4-(trifluoromethyl)isoindolin-1-one]
IC50 (Cbl-b [1]): ≤ 0.1 µM
fold induction at 0.3 µM (T-cell [2]; [7]): 2.51 to 5
fold induction at 1 µM (T-cell [2]; [7]): 5 to 7.5
fold induction at 1 µM (T-cell [3]; [8]): 0.101 to 0.15
fold induction at 0.3 µM (T-cell [4]; [7]): 1.01 to 1.3
fold induction at 1 µM (T-cell [4]; [7]): 1.31 to 1.5
fold induction at 1 µM (T-cell [5]; [8]): > 1
IC50 (Cbl-b [6]): < 0.1 µM
